Read-outs that look alike come from different tables or passages of the source. Starred links: 1 amine or outer side, 2 acyl side, 3 side chain; linkers in the order of their positions; H or OH if unused. Positions of bridges follow the written chain, without caps; N, C: chain ends. Non-standard residues stand in square brackets, D forms with d. Residues, ends and D or L forms follow the SMILES beside them. *: point of attachment. Butanoyl(4-(4-I-phenyl)) = O=C(CCCc1ccc(I)cc1)*; TBMB = c1c(C[*:1])cc(C[*:3])cc1C[*:2]; Benzoyl(3-I) = O=C(c1cccc(I)c1)*; 4Abz = Nc1ccc(C(=O)O)cc1
Test: Biodistribution in U-87 MG tumor-bearing mice
Type: in vivo, BALB/c nu-nu mice
Conditions: male, BALB/c nu-nu, mouse, iv, 37 kBq, total radioactivity; for tissue uptake at 5 min / tissue uptake dose at 5 min: 5 min after i.v. administration; for tissue uptake at 0.5 h / tissue uptake dose at 0.5 h: 30 min after i.v. administration; for tissue uptake at 1 h / tissue uptake dose at 1 h: 1 h after i.v. administration; for tissue uptake at 2 h / tissue uptake dose at 2 h: 2 h after i.v. administration; for tissue uptake at 6 h / tissue uptake dose at 6 h: 6 h after i.v. administration
Procedure, shortened: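 Male BALB/c nu/nu mice bearing subcutaneous U-87 MG (right leg), or also A549 (left leg), tumors ~10 mm; 37 kBq radiotracer given IV in PBS-0.1% Tween 80. Single-tumor mice sampled 5 min–24 h, co-implanted mice at 2 h (or 30 min–4 h for dimer); organ radioactivity counted by NaI scintillation, expressed as %ID/g.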

[1] = U-87 MG tumor, U-87 MG-bearing mice, mean ± SD, n = 3, read-out: Radioactivity in U-87 MG tumor
[2] = blood, U-87 MG-bearing mice, mean ± SD, n = 3, read-out: Radioactivity in blood
[3] = bone, U-87 MG-bearing mice, mean ± SD, n = 3, read-out: Radioactivity in bone
[4] = brain, U-87 MG-bearing mice, mean ± SD, n = 3, read-out: Radioactivity in brain
[5] = heart, U-87 MG-bearing mice, mean ± SD, n = 3, read-out: Radioactivity in heart
[6] = kidneys, U-87 MG-bearing mice, mean ± SD, n = 3, read-out: Radioactivity in kidneys
[7] = large intestine, U-87 MG-bearing mice, mean ± SD, n = 3, read-out: Radioactivity in large intestine
[8] = liver, U-87 MG-bearing mice, mean ± SD, n = 3, read-out: Radioactivity in liver
[9] = lung, U-87 MG-bearing mice, mean ± SD, n = 3, read-out: Radioactivity in lung
[10] = muscle, U-87 MG-bearing mice, mean ± SD, n = 3, read-out: Radioactivity in muscle
[11] = pancreas, U-87 MG-bearing mice, mean ± SD, n = 3, read-out: Radioactivity in pancreas
[12] = small intestine, U-87 MG-bearing mice, mean ± SD, n = 3, read-out: Radioactivity in small intestine
[13] = spleen, U-87 MG-bearing mice, mean ± SD, n = 3, read-out: Radioactivity in spleen
[14] = stomach, U-87 MG-bearing mice, mean ± SD, n = 3, read-out: Radioactivity in stomach
[15] = thyroid, U-87 MG-bearing mice, mean ± SD, n = 3, read-out: Radioactivity in thyroid

With `N=C(N)NCCC[C@@H]1NC(=O)[C@H]2CSCc3cc(cc(c3)CSC[C@H](C(N)=O)NC(=O)[C@H](CC(=O)O)NC(=O)CNC1=O)CSC[C@H](NC(=O)CNC(=O)[C@H](CO)NC(=O)c1ccc(NC(=O)CNC(=O)[C@H](CO)NC(=O)[C@@H]3CCCN3C(=O)[C@@H]3CCCN3C(=O)[C@@H]3CCCN3C(=O)[C@H](CCCCNC(=O)c3cccc(I)c3)NC(=O)CCCc3ccc(I)cc3)cc1)C(=O)N[C@@H](Cc1c[nH]cn1)C(=O)N1CCC[C@H]1C(=O)N[C@@H](CCC(N)=O)C(=O)N2` [[^125I]bcRGDiba] ({Butanoyl(4-(4-I-phenyl))}-K(Benzoyl(3-I))PPPSG[4Abz]SGCHPQ[dC]RGD[dC]-NH2; linker 10-14-18 via TBMB) the tissue uptake at 5 min [1] was 2.2 ± 0.5 %ID/g, the tissue uptake at 0.5 h [1] was 3.4 ± 0.5 %ID/g and the tissue uptake at 1 h [1] was 3.6 ± 0.8 %ID/g. The tissue uptake at 2 h [1] was 3.6 ± 0.7 %ID/g, the tissue uptake at 6 h [1] was 2.9 ± 0.4 %ID/g and the tissue uptake at 12 h (U-87 MG tumor, 12 h after i.v. administration, U-87 MG-bearing mice, mean ± SD, n = 3, read-out: Radioactivity in U-87 MG tumor) was 1.4 ± 0.3 %ID/g. The tissue uptake at 24 h (U-87 MG tumor, 24 h after i.v. administration, U-87 MG-bearing mice, mean ± SD, n = 3, read-out: Radioactivity in U-87 MG tumor) was 0.5 ± 0.1 %ID/g, the tissue to tissue ratio (U-87 MG tumor/blood, all time points (5 min to 24 h)) was < 1 and the tissue uptake at 5 min [2] was 23.3 ± 2.9 %ID/g. It also gave a tissue uptake at 0.5 h [2] of 18.5 ± 1 %ID/g, a tissue uptake at 1 h [2] of 15.4 ± 1.2 %ID/g and a tissue uptake at 2 h [2] of 14 ± 1.5 %ID/g. The tissue uptake at 6 h [2] was 8.5 ± 1 %ID/g, the tissue uptake at 12 h (blood, 12 h after i.v. administration, U-87 MG-bearing mice, mean ± SD, n = 3, read-out: Radioactivity in blood) was 3.9 ± 0.7 %ID/g and the tissue uptake at 24 h (blood, 24 h after i.v. administration, U-87 MG-bearing mice, mean ± SD, n = 3, read-out: Radioactivity in blood) was 1.4 ± 0.1 %ID/g. For the same compound, the tissue uptake at 5 min [3] was 1.7 ± 0.3 %ID/g, the tissue uptake at 0.5 h [3] was 1.9 ± 0.6 %ID/g and the tissue uptake at 1 h [3] was 1.6 ± 0.4 %ID/g. It also gave a tissue uptake at 2 h [3] of 1.5 ± 0.3 %ID/g, a tissue uptake at 6 h [3] of 1.3 ± 0.1 %ID/g and a tissue uptake at 12 h (bone, 12 h after i.v. administration, U-87 MG-bearing mice, mean ± SD, n = 3, read-out: Radioactivity in bone) of 0.6 ± 0.2 %ID/g. The tissue uptake at 24 h (bone, 24 h after i.v. administration, U-87 MG-bearing mice, mean ± SD, n = 3, read-out: Radioactivity in bone) was 0.3 ± 0.1 %ID/g, the tissue uptake at 5 min [4] was 0.6 ± 0.2 %ID/g and the tissue uptake at 0.5 h [4] was 0.4 ± 0.1 %ID/g. It also gave a tissue uptake at 1 h [4] of 0.4 %ID/g, a tissue uptake at 2 h [4] of 0.3 %ID/g and a tissue uptake at 6 h [4] of 0.2 %ID/g. The tissue uptake at 12 h (brain, 12 h after i.v. administration, U-87 MG-bearing mice, mean ± SD, n = 3, read-out: Radioactivity in brain) was 0.1 %ID/g, the tissue uptake at 5 min [5] was 7.4 ± 1.4 %ID/g and the tissue uptake at 0.5 h [5] was 5.3 ± 0.5 %ID/g. For the same compound, the tissue uptake at 1 h [5] was 4.5 ± 0.8 %ID/g, the tissue uptake at 2 h [5] was 4.2 ± 0.1 %ID/g and the tissue uptake at 6 h [5] was 2.7 ± 0.2 %ID/g. For the same compound, the tissue uptake at 12 h (heart, 12 h after i.v. administration, U-87 MG-bearing mice, mean ± SD, n = 3, read-out: Radioactivity in heart) was 1.3 ± 0.1 %ID/g, the tissue uptake at 24 h (heart, 24 h after i.v. administration, U-87 MG-bearing mice, mean ± SD, n = 3, read-out: Radioactivity in heart) was 0.5 %ID/g and the tissue uptake at 5 min [6] was 7.8 ± 0.5 %ID/g. It also gave a tissue uptake at 0.5 h [6] of 7.1 ± 1.4 %ID/g, a tissue uptake at 1 h [6] of 7.3 ± 0.4 %ID/g and a tissue uptake at 2 h [6] of 5.5 ± 0.3 %ID/g. The tissue uptake at 6 h [6] was 3.9 ± 0.4 %ID/g, the tissue uptake at 12 h (kidneys, 12 h after i.v. administration, U-87 MG-bearing mice, mean ± SD, n = 3, read-out: Radioactivity in kidneys) was 1.8 ± 0.1 %ID/g and the tissue uptake at 24 h (kidneys, 24 h after i.v. administration, U-87 MG-bearing mice, mean ± SD, n = 3, read-out: Radioactivity in kidneys) was 0.8 ± 0.1 %ID/g. It also gave a tissue uptake at 5 min [7] of 1.5 ± 0.7 %ID/g, a tissue uptake at 0.5 h [7] of 1 ± 0.1 %ID/g and a tissue uptake at 1 h [7] of 1 ± 0.1 %ID/g. It also gave a tissue uptake at 2 h [7] of 7.1 ± 2 %ID/g, a tissue uptake at 6 h [7] of 11.3 ± 2 %ID/g and a tissue uptake at 12 h (large intestine, 12 h after i.v. administration, U-87 MG-bearing mice, mean ± SD, n = 3, read-out: Radioactivity in large intestine) of 3.4 ± 1 %ID/g. It also gave a tissue uptake at 24 h (large intestine, 24 h after i.v. administration, U-87 MG-bearing mice, mean ± SD, n = 3, read-out: Radioactivity in large intestine) of 2.2 ± 0.2 %ID/g, a tissue uptake at 5 min [8] of 7.6 ± 0.5 %ID/g and a tissue uptake at 0.5 h [8] of 6.9 ± 0.2 %ID/g. The tissue uptake at 1 h [8] was 5.7 ± 0.7 %ID/g, the tissue uptake at 2 h [8] was 5.1 ± 0.4 %ID/g and the tissue uptake at 6 h [8] was 3.4 ± 0.4 %ID/g. The tissue uptake at 12 h (liver, 12 h after i.v. administration, U-87 MG-bearing mice, mean ± SD, n = 3, read-out: Radioactivity in liver) was 1.4 ± 0.2 %ID/g, the tissue uptake at 24 h (liver, 24 h after i.v. administration, U-87 MG-bearing mice, mean ± SD, n = 3, read-out: Radioactivity in liver) was 0.6 %ID/g and the tissue uptake at 5 min [9] was 10.7 ± 1.9 %ID/g. It also gave a tissue uptake at 0.5 h [9] of 9.4 ± 0.3 %ID/g, a tissue uptake at 1 h [9] of 8.2 ± 0.6 %ID/g and a tissue uptake at 2 h [9] of 7.5 ± 0.4 %ID/g. The tissue uptake at 6 h [9] was 5.3 ± 0.5 %ID/g, the tissue uptake at 12 h (lung, 12 h after i.v. administration, U-87 MG-bearing mice, mean ± SD, n = 3, read-out: Radioactivity in lung) was 2.6 ± 0.3 %ID/g and the tissue uptake at 24 h (lung, 24 h after i.v. administration, U-87 MG-bearing mice, mean ± SD, n = 3, read-out: Radioactivity in lung) was 1.2 ± 0.1 %ID/g. The tissue uptake at 5 min [10] was 1.4 ± 0.4 %ID/g, the tissue uptake at 0.5 h [10] was 1.5 ± 0.2 %ID/g and the tissue uptake at 1 h [10] was 1.5 ± 0.1 %ID/g. For the same compound, the tissue uptake at 2 h [10] was 1.5 ± 0.2 %ID/g, the tissue uptake at 6 h [10] was 1.2 ± 0.3 %ID/g and the tissue uptake at 12 h (muscle, 12 h after i.v. administration, U-87 MG-bearing mice, mean ± SD, n = 3, read-out: Radioactivity in muscle) was 0.5 ± 0.1 %ID/g. The tissue uptake at 24 h (muscle, 24 h after i.v. administration, U-87 MG-bearing mice, mean ± SD, n = 3, read-out: Radioactivity in muscle) was 0.3 %ID/g, the tissue uptake at 5 min [11] was 2.3 ± 0.4 %ID/g and the tissue uptake at 0.5 h [11] was 2 ± 0.2 %ID/g. It also gave a tissue uptake at 1 h [11] of 1.5 ± 0.2 %ID/g, a tissue uptake at 2 h [11] of 1.4 ± 0.2 %ID/g and a tissue uptake at 6 h [11] of 1 ± 0.2 %ID/g. For the same compound, the tissue uptake at 12 h (pancreas, 12 h after i.v. administration, U-87 MG-bearing mice, mean ± SD, n = 3, read-out: Radioactivity in pancreas) was 0.5 ± 0.1 %ID/g, the tissue uptake at 24 h (pancreas, 24 h after i.v. administration, U-87 MG-bearing mice, mean ± SD, n = 3, read-out: Radioactivity in pancreas) was 0.2 %ID/g and the tissue uptake at 5 min [12] was 2.3 ± 0.4 %ID/g. It also gave a tissue uptake at 0.5 h [12] of 3 ± 0.1 %ID/g, a tissue uptake at 1 h [12] of 4.8 ± 0.6 %ID/g and a tissue uptake at 2 h [12] of 4.9 ± 0.3 %ID/g. The tissue uptake at 6 h [12] was 5.6 ± 1.1 %ID/g, the tissue uptake at 12 h (small intestine, 12 h after i.v. administration, U-87 MG-bearing mice, mean ± SD, n = 3, read-out: Radioactivity in small intestine) was 2.2 ± 0.5 %ID/g and the tissue uptake at 24 h (small intestine, 24 h after i.v. administration, U-87 MG-bearing mice, mean ± SD, n = 3, read-out: Radioactivity in small intestine) was 0.9 ± 0.1 %ID/g. The tissue uptake at 5 min [13] was 2.9 ± 0.5 %ID/g, the tissue uptake at 0.5 h [13] was 3 ± 0.2 %ID/g and the tissue uptake at 1 h [13] was 2.5 ± 0.2 %ID/g. It also gave a tissue uptake at 2 h [13] of 2.3 ± 0.3 %ID/g, a tissue uptake at 6 h [13] of 1.7 ± 0.5 %ID/g and a tissue uptake at 12 h (spleen, 12 h after i.v. administration, U-87 MG-bearing mice, mean ± SD, n = 3, read-out: Radioactivity in spleen) of 0.9 ± 0.1 %ID/g. It also gave a tissue uptake at 24 h (spleen, 24 h after i.v. administration, U-87 MG-bearing mice, mean ± SD, n = 3, read-out: Radioactivity in spleen) of 0.4 %ID/g, a tissue uptake dose at 5 min [14] of 0.4 ± 0.1 %ID and a tissue uptake dose at 0.5 h [14] of 0.8 ± 0.2 %ID. For the same compound, the tissue uptake dose at 1 h [14] was 0.7 ± 0.1 %ID, the tissue uptake dose at 2 h [14] was 0.7 ± 0.3 %ID and the tissue uptake dose at 6 h [14] was 0.8 ± 0.2 %ID. For the same compound, the tissue uptake dose at 12 h (stomach, 12 h after i.v. administration, U-87 MG-bearing mice, mean ± SD, n = 3) was 0.2 ± 0.1 %ID, the tissue uptake dose at 24 h (stomach, 24 h after i.v. administration, U-87 MG-bearing mice, mean ± SD, n = 3) was 0.2 %ID and the tissue uptake dose at 5 min [15] was 0.1 %ID. It also gave a tissue uptake dose at 0.5 h [15] of 0.1 ± 0.1 %ID, a tissue uptake dose at 1 h [15] of 0.1 ± 0.1 %ID and a tissue uptake dose at 2 h [15] of 0.1 ± 0.1 %ID. The tissue uptake dose at 6 h [15] was 0.1 %ID.

From PMC12030627, “Radioiodinated Bicyclic RGD Peptide Derivatives for Enhanced Tumor Accumulation” (Pharmaceuticals, 2025)
